# In patent EP3807270B1, “NOVEL HETEROARYL HETEROCYCLYL COMPOUNDS FOR THE TREATMENT OF AUTOIMMUNE DISEASE” (F. Hoffmann-La Roche AG, priority 2018, dated 2019):
# Biological target: T1, hTLR9 (Homo sapiens, UniProt Q9NR96)
# T1 sequence (Q9NR96 26-1032): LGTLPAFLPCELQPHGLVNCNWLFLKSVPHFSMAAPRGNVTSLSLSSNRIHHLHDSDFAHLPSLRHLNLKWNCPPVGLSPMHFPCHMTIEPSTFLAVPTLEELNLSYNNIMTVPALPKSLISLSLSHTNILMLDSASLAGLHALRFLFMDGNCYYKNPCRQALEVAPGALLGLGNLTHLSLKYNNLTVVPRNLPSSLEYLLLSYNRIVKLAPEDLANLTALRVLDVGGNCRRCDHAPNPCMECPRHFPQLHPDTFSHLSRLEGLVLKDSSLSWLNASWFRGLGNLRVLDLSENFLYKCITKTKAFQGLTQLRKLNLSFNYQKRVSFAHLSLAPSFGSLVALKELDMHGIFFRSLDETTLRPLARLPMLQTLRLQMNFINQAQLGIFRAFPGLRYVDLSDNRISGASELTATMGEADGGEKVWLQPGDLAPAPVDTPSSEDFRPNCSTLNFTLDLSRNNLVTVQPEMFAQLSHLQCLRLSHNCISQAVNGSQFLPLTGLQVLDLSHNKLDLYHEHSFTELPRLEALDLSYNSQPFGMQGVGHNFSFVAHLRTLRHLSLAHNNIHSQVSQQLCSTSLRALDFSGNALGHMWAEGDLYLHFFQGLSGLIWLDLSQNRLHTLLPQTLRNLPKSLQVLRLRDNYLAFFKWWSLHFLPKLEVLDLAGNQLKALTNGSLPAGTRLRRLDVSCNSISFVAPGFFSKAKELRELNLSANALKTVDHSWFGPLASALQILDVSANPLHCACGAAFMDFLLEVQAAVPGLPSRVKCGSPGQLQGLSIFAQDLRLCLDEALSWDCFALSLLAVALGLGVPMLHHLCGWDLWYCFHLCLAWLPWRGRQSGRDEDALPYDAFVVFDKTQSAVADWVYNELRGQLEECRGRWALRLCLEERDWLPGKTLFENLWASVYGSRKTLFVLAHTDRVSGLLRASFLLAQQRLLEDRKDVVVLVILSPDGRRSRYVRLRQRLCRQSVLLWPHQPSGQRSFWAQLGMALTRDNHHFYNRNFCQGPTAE
# Experiment: HEK293-Blue-hTLR-9 cells assay (SEAP reporter, ODN2006 stimulation)
# Assay type: cell-based
# Set-up: host or cells: HEK293 (HEK-Blue)
# Conditions: HEK293-Blue-hTLR9 cells, ODN2006, 20 hrs; read-out: HEK/hTLR9 IC50
# From the text: A stable HEK293-Blue-hTLR-9 cell line was purchased from InvivoGen (Cat.#: hkb-htlr9, San Diego, California, USA). These cells were originally designed for studying the stimulation of human TLR9 by monitoring the activation of NF-κB. A SEAP (secreted embryonic alkaline phosphatase) reporter gene was placed under the control of the IFN-β minimal promoter fused to five NF-κB and AP-1-binding sites. The SEAP was induced by activating NF-κB and AP-1 via stimulating HEK-Blue hTLR9 cells with TLR9 ligands. Therefore, the reporter expression was declined by TLR9 antagonist under the stimulation of a ligand, such as ODN2006 (Cat.#: tlrl-2006-1, Invivogen, San Diego, California, USA), for incubation of 20 hrs. The cell culture supernatant SEAP reporter activity was determined using QUANTI-Blue™ kit (Cat.#: rep-qb 1, Invivogen, San Diego, California, USA) at a wavelength of 640 nm, a detection medium that turns purple or blue in the presence of alkaline phosphatase.
# HEK293-Blue-hTLR9 cells were incubated at a density of 250,000-450,000 cells/mL in a volume of 170 µL in a 96-well plate in Dulbecco's Modified Eagle's medium (DMEM) containing 4.5 g/L glucose, 50 U/mL penicillin, […], […], 2 mM L-glutamine, 10% (v/v) heat-inactivated fetal bovine serum with addition of 20 µL test compound in a serial dilution in the presence of final DMSO at 1% and 10 µL of 20uM ODN2006 in above DMEM, perform incubation under 37 °C in a CO2 incubator for 20 hrs. Then 20 µL of the supernatant from each well was incubated with 180 µL Quanti-blue substrate solution at 37 °C for 2 hrs and the absorbance was read at 620-655 nm using a spectrophotometer. The signaling pathway that TLR9 activation leads to downstream NF-κB activation has been widely accepted, and therefore similar reporter assay was modified for evaluating TLR9 antagonist.
row,IC50 [nM],Compound
1,229,"C[C@@H]1CN(c2ccc(C#N)c3ncccc23)C[C@H](CN2CCN(c3ncnc4c3CNCC4)CC2)O1 [Example 61, 5-[(2R,6S)-2-methyl-6-[[4-(5,6,7,8-tetrahydropyrido[4,3-d]pyrimidin-4-yl)piperazin-1-yl]methyl]morpholin-4-yl]quinoline-8-carbonitrile]"
2,59,"C[C@@H]1CN(c2ccc(C#N)c3ncccc23)C[C@H](CN2CCN(c3cnc4c(c3)CCNC4)CC2)O1 [Example 23, 5-[(2R,6S)-2-methyl-6-[[4-(5,6,7,8-tetrahydro-1,7-naphthyridin-3-yl)piperazin-1-yl]methyl]morpholin-4-yl]quinoline-8-carbonitrile]"
3,113,"C[C@@H]1CN(c2ccc(C#N)c3ncccc23)C[C@H](CN2CC3(C2)CN(c2ccc4c(n2)CNCC4)CCO3)O1 [Example 45, 5-[(2R,6S)-2-methyl-6-[[8-(5,6,7,8-tetrahydro-1,7-naphthyridin-2-yl)-5-oxa-2,8-diazaspiro[3.5]nonan-2-yl]methyl]morpholin-4-yl]quinoline-8-carbonitrile]"
4,87,"C[C@@H]1CN(c2ccc(C#N)c3nccnc23)C[C@H](CN2CCN(c3cc4c(cn3)[C@H](C)NCC4)CC2)O1 (single isomer, unassigned) [Example 85]"
5,115,"C[C@@H]1Cc2cnc(N3CCN(C[C@H]4CN(c5ccc(C#N)c6ncccc56)C[C@@H](C)O4)CC3)cc2CN1 (single isomer, unassigned) [Example 77]"
6,58,"C[C@@H]1CN(c2ccc(C#N)c3ncccc23)C[C@H](CN2CCN(c3cccc4c3CNC4)CC2)O1 [Example 2, 5-[(2S,6R)-2-[(4-isoindolin-4-ylpiperazin-1-yl)methyl]-6-methyl-morpholin-4-yl] quinoline-8-carbonitrile]"
7,148,"C[C@@H]1CN(c2ccc(C#N)c3ncccc23)C[C@H](CN2CCN(c3ccc4c(c3)CNC4)[C@@H](CO)C2)O1 [Example 4, 5-[(2S,6R)-2-[[(3R)-3-(hydroxymethyl)-4-isoindolin-5-yl-piperazin-1-yl]methyl]-6-methyl-morpholin-4-yl]quinoline-8-carbonitrile]"
8,69,"C[C@@H]1CN(c2ccc(C#N)c3ncccc23)C[C@H](CN2CC3(C2)CN(c2cnc4c(n2)CCNC4)CCO3)O1 [Example 50, 5-[(2R,6S)-2-methyl-6-[[8-(5,6,7,8-tetrahydropyrido[3,4-b]pyrazin-2-yl)-5-oxa-2,8-diazaspiro [3.5]nonan-2-yl]methyl]morpholin-4-yl] quinoline-8-carbonitrile]"
9,134,"C[C@@H]1CN(c2ccc(C#N)c3ncccc23)C[C@H](CN2CC3(C2)CN(c2ncc4c(n2)CCNC4)CCO3)O1 [Example 51, 5-[(2R,6S)-2-methyl-6-[[8-(5,6,7,8-tetrahydropyrido[4,3-d]pyrimidin-2-yl)-5-oxa-2,8-diazaspiro[3.5]nonan-2-yl]methyl]morpholin-4-yl]quinoline-8-carbonitrile]"
10,58,"C[C@@H]1CN(c2ccc(C#N)c3ncccc23)C[C@H](CN2CCN(c3ccc4c(n3)CCNC4)CC2)O1 [Example 14, 5-[(2R,6S)-2-methyl-6-[[4-(5,6,7,8-tetrahydro-1,6-naphthyridin-2-yl)piperazin-1-yl]methyl]morpholin-4-yl]quinoline-8-carbonitrile]"
11,98,"C[C@@H]1CN(c2ccc(C#N)c3ncccc23)C[C@H](CN2CCN(c3cnc4c(n3)CCNC4)CC2)O1 [Example 17, 5-[(2R,6S)-2-methyl-6-[[4-(5,6,7,8-tetrahydropyrido[3,4-b]pyrazin-2-yl)piperazin-1-yl]methyl]morpholin-4-yl]quinoline-8-carbonitrile]"
12,97,"C[C@@H]1CN(c2ccc(C#N)c3ncccc23)C[C@H](CN2CCN(c3ccc4c(c3)CNC4)CC2CO)O1 (stereo partly drawn) [Example 15, 5-[(2S,6R)-2-[[2-(hydroxymethyl)-4-isoindolin-5-yl-piperazin-1-yl]methyl]-6-methyl-morpholin-4-yl]quinoline-8-carbonitrile]"
13,119,"C[C@@H]1CN(c2ccc(C#N)n3ncc(F)c23)C[C@H](CN2CCN(c3cnc4c(c3)CNC4)CC2)O1 [Example 26, 4-[(2S,6R)-2-[[4-(6,7-dihydro-5H-pyrrolo[3,4-b]pyridin-3-yl)piperazin-1-yl]methyl]-6-methyl-morpholin-4-yl]-3-fluoro-pyrazolo[1,5-a]pyridine-7-carbonitrile]"
14,< 32,"C[C@@H]1CN(c2ccc(C#N)c3ncccc23)C[C@H](CN2C[C@H]3CN(c4ccc5c(n4)CCNC5)CC[C@@H]32)O1 (single isomer, unassigned) [Example 54]"
15,52,"CC1NCc2cc(N3CCN(C[C@H]4CN(c5ccc(C#N)c6ncccc56)C[C@@H](C)O4)CC3)ccc21 (stereo partly drawn) [Example 28, 5-[(2R,6S)-2-methyl-6-[[4-(1-methylisoindolin-5-yl)piperazin-1-yl]methyl]morpholin-4-yl]quinoline-8-carbonitrile]"
16,44,"C[C@@H]1CN(c2ccc(C#N)c3ncccc23)C[C@H](CN2C[C@@H]3[C@@H](C2)OCCN3c2cnc3c(c2)CCNC3)O1 [Example 52, 5-[(2S,6R)-2-[[(4aR,7aR)-4-(5,6,7,8-tetrahydro-1,7-naphthyridin-3-yl)-2,3,4a,5,7,7a-hexahydropyrrolo[3,4-b][1,4]oxazin-6-yl]methyl]-6-methylmorpholin-4-yl]quinoline-8-carbonitrile]"
17,83,"C[C@@H]1Cc2cc(N3CCN(C[C@H]4CN(c5ccc(C#N)c6ncccc56)C[C@@H](C)O4)CC3)ncc2CN1 (single isomer, unassigned) [Example 70]"
18,98,"C[C@@H]1CN(c2ccc(C#N)c3ncccc23)C[C@H](CN2CCN(c3cc4c(cn3)CNC4)CC2)O1 [Example 18, 5-[(2S,6R)-2-[[4-(2,3-dihydro-1H-pyrrolo[3,4-c]pyridin-6-yl)piperazin-1-yl]methyl]-6-methyl-morpholin-4-yl] quinoline-8-carbonitrile]"
19,151,"C[C@@H]1CN(c2ccc(C#N)c3ncccc23)C[C@H](CN2CCN(c3nccc4c3CCNC4)CC2)O1 [Example 62, 5-[(2R,6S)-2-methyl-6-[[4-(5,6,7,8-tetrahydro-2,6-naphthyridin-1-yl)piperazin-1-yl]methyl]morpholin-4-yl]quinoline-8-carbonitrile]"
20,117,"C[C@@H]1CN(c2ccc(C#N)c3ncccc23)C[C@H](CN2CCN(c3ccc4c(n3)CCNC4)C[C@@H](O)C2)O1 (single isomer, unassigned) [Example 35B]"
21,147,"C[C@@H]1CN(c2ccc(C#N)c3ncccc23)C[C@H](CN2CCN(c3ccc4c(n3)CCNC4)C[C@H](O)C2)O1 (single isomer, unassigned) [Example 35A]"
22,66,"C[C@@H]1CN(c2ccc(C#N)c3ncccc23)C[C@H](CN2CCN(c3cc4c(cn3)[C@H](C)NCC4)CC2)O1 (single isomer, unassigned) [Example 72]"
23,123,"C[C@@H]1CN(c2ccc(C#N)c3ncccc23)C[C@H](CN2CCN(c3cnc4c(n3)CNCC4)CC2)O1 [Example 40, 5-[(2R,6S)-2-methyl-6-[[4-(5,6,7,8-tetrahydropyrido[3,4-b]pyrazin-3-yl)piperazin-1-yl]methyl]morpholin-4-yl]quinoline-8-carbonitrile]"
